Values joined by “and” are separate entries in the source; they are usually repeats but may differ in a detail not shown here. Identical values can stand only once. Like-named read-outs stand apart in the source and are kept apart here. Where a SMILES comes first, the peptide text is derived from it. Where no end group is shown, it is not given here. The star is where a group is joined. Succinimide(1-Et,3-yl) = CCN1C(=O)CC(*)C1=O
Molecular target: T1, human CRHR2 (Homo sapiens, UniProt Q13324)
T1 construct: expressed in transfected cells
T1 sequence (Q13324 1-411): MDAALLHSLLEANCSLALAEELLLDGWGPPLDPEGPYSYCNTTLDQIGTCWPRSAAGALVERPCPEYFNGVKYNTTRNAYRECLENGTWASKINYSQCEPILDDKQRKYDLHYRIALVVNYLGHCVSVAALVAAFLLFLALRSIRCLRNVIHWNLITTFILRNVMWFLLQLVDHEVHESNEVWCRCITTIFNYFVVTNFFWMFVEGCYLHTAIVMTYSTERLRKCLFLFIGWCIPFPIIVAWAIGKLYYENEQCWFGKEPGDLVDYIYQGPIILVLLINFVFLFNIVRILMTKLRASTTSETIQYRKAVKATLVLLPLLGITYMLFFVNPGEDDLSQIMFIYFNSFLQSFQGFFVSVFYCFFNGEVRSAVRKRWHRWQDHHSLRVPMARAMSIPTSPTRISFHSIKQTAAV
Test: cAMP assay, h-CRHR2 transfected SK-N-MC cells
Assay type: cell-based
Conditions: for EC50: read-out: pA50 (converted); for Log DR [M]: h-SCP control pA50 minus test compound pA50 within the same assay batch; for αmax: normalized to the maximum response to h-SCP
Description: The concentration required for 50% maximum effect (A50) was 0.4 nM.
Human CRHR1 (accession number X72304) or CRHR2 (accession number U34587) were cloned into pcDNA3.1/Zeo expression vector and stably transfected into SK—N-MC cells by electroporation. Cells were maintained in MEM w/Earl's Salt with 10% FBS, 50 I.U. penicillin, 50 μg/ml streptomycin, 2 mM L-glutamine, 1 mM sodium pyruvate and 0.1 mM non-essential amino acids, 600 μg/ml G418. Cells were grown at 37° C. in 5% CO2
Cells were plated in 96-well tissue culture dishes (Biocoat from BD Biosciences) overnight at 50,000 cell/well. Cells were washed with PBS then resuspended in DMEM F-12 without phenol red, containing 10 μM isobutylmethylxanthine (IBMX). Cells were incubated with the peptides at concentrations ranging from 1 pM to 10 μM for 60 min at 37° Celsius. […] Forskolin (10 μM), a direct stimulant of adenylate cyclase, was used as positive control. The assays were stopped by the addition of 0.5 M HCl and mixing by orbital rotation for 2 h at 4° Celsius.
To assess the activity of the inventive polypeptide at the CRHR2, an intracellular cAMP measurement test using a Flash plate radioactive assay (Catalog No. Cus56088; Perkin Elmer, Mass., U.S.A.) was employed.
Transfected SK—N-MC cells were plated in 96-well Biocoat tissue culture dishes (BD Biosciences, San Jose, Calif., U.S.A) overnight at 50,000 cell/well. Cells were first washed with PBS and then suspended with DMEM/F-12 without phenol red, containing […]. Suspended cells were transferred into a 96-well flash plate coated with scintillant fluid. Cells were incubated with peptides ranging from 1 pM to 1 μM, for 60 min, at 37° Celsius. Forskolin at 10 μM was used as positive control. After ligand stimulation, cells were lysed by the addition of 0.5M HCl and mixed by orbital rotation for 2 h at 4° Celsius in order to release intracellular cAMP into the media.
Media containing released intracellular cAMP was transferred to a 96-well flash plate coated with scintillant fluid containing an anti-cAMP antibody. In this assay, intracellular cAMP competes with ^125I-labeled cAMP binding to the antibody. To generate a standard curve, cAMP ranging from 2.5 to 250 pmoles/ml was included in the experiment. [^125I]-cAMP was measured on a TopCount scintillation counter (Perkin Elmer, Mass., U.S.A).
Individual agonist concentration-response curve data were fitted to the Hill equation, see formula below, using GraphPad Prism (Graphpad Software, La Jolla, Calif., U.S.A.), to provide estimates of agonist concentration needed to generate one-half maximal response (A50), and the maximal asymptote (α) and Hill slope (nH) parameters. In this equation, [A] is the agonist concentration and E is the measured effect:
For display purposes the mean fitted parameter estimates were used to generate a single E/[A] curve shown superimposed on the mean experimental data. Potency estimates for agonists, pA50, are expressed as the negative logarithm of the midpoint of each curve and listed with their standard error of measurement (SEM). Logarithm base 10 of the agonist dose ratio (Log DR) values were calculated by subtraction of the test compound pA50 value from the corresponding h-SCP (SEQ ID NO:1) control pA50 value within the same assay batch. The SEM values of the Log DR values are given by the square root of the sum of the squared SEM values of the h-SCP (SEQ ID NO:1) control and test compound pA50 values.
Human and rat peptides (see Table 10) were used on the stimulation of h-CRHR1 or h-CRHR2 transfected SK—N-MC cells in the cAMP flash plate assay. Peptides were incubated for 1 hr at 37° Celsius. Curves were calculated using non-linear regression sigmoidal concentration-response analysis calculation in GraphPad Prism. The so obtained pA50 values are shown in Table 11 in addition to literature values. […]

[1] = Table 13, cysteine mutation, N-ethylmaleimide capping, pegylation
[2] = Table 12, amidation and N-terminal deletions, normalized to maximum response to h-SCP, 3-5 replicate experiments

Row | Molecule | EC50 [1] | Log DR [M] (Table 13) | nH (Table 12) | EC50 [2] | αmax (Table 12)
1 | TKFTCSLDVPTNIMNLLFNIAKAKNLRAQAAANAHLMAQI-NH2 [SEQ ID NO: 6, TKFTCSLDVPTNIMNLLFNIAKAKNLRAQAAANAHLMAQI-NH2] | 0.851 nM | 0.61 | – | – | –
2 | LSLDVPTNIMNLLFNIAKAKNLRAQAAANAHLMAQI-NH2 [SEQ ID NO: 109, LSLDVPTNIMNLLFNIAKAKNLRAQAAANAHLMAQI-NH2] | – | – | 0.74 | 46.8 nM and 45.7 nM | 109.6
3 | TKFTLSLDVPTNIMNLLFNIAKCKNLRAQAAANAHLMAQI-NH2 [SEQ ID NO: 24, TKFTLSLDVPTNIMNLLFNIAKCKNLRAQAAANAHLMAQI-NH2] | 1.15 nM | 0.74 | – | – | –
4 | TKFTLCLDVPTNIMNLLFNIAKAKNLRAQAAANAHLMAQI-NH2 [SEQ ID NO: 7, TKFTLCLDVPTNIMNLLFNIAKAKNLRAQAAANAHLMAQI-NH2] | 25.1 nM | 2.08 | – | – | –
5 | TKFTLSLDVPTNIMNLLFNIAKACNLRAQAAANAHLMAQI-NH2 [SEQ ID NO: 25, TKFTLSLDVPTNIMNLLFNIAKACNLRAQAAANAHLMAQI-NH2] | 0.676 nM | 0.35 | – | – | –
6 | TLSLDVPTNIMNLLFNIAKAKNLRAQAAANAHLMAQI-NH2 [SEQ ID NO: 108, TLSLDVPTNIMNLLFNIAKAKNLRAQAAANAHLMAQI-NH2] | – | – | 0.82 | 3.24 nM | 106.3

Continued, in another order:

Row | EC50 [1] | Log DR [M] (Table 13) | Molecule | nH (Table 12) | EC50 [2] | αmax (Table 12)
7 | 0.38 nM | 0.05 | CC[C@H](C)[C@H](NC(=O)[C@H](CCC(N)=O)NC(=O)[C@H](C)NC(=O)[C@H](CCSC)NC(=O)[C@H](CC(C)C)NC(=O)[C@H](Cc1c[nH]cn1)NC(=O)[C@H](C)NC(=O)[C@H](CC(N)=O)NC(=O)[C@H](C)NC(=O)[C@H](C)NC(=O)[C@H](C)NC(=O)[C@H](CCC(N)=O)NC(=O)[C@H](C)NC(=O)[C@H](CCCNC(=N)N)NC(=O)[C@H](CC(C)C)NC(=O)[C@H](CC(N)=O)NC(=O)[C@H](CCCCN)NC(=O)[C@H](C)NC(=O)[C@H](CCCCN)NC(=O)[C@H](C)NC(=O)[C@@H](NC(=O)[C@H](CSC1CC(=O)N(CC)C1=O)NC(=O)[C@H](Cc1ccccc1)NC(=O)[C@H](CC(C)C)NC(=O)[C@H](CC(C)C)NC(=O)[C@H](CC(N)=O)NC(=O)[C@H](CCSC)NC(=O)[C@@H](NC(=O)[C@H](CC(N)=O)NC(=O)[C@@H](NC(=O)[C@@H]1CCCN1C(=O)[C@@H](NC(=O)[C@H](CC(=O)O)NC(=O)[C@H](CC(C)C)NC(=O)[C@H](CO)NC(=O)[C@H](CC(C)C)NC(=O)[C@@H](NC(=O)[C@H](Cc1ccccc1)NC(=O)[C@H](CCCCN)NC(=O)[C@@H](N)[C@@H](C)O)[C@@H](C)O)C(C)C)[C@@H](C)O)[C@@H](C)CC)[C@@H](C)CC)C(N)=O (stereo partly shown) [SEQ ID NO: 52, TKFTL SLDVP TNIMN LLFC(-NES)I AKAKN LRAQA AANAH LMAQI-NH2] (H-TKFTLSLDVPTNIMNLLFC(Succinimide(1-Et,3-yl))IAKAKNLRAQAAANAHLMAQI-NH2; N-terminus assumed) | – | – | –
8 | 0.794 nM | 0.42 | TKFTLSLDVPTNIMNLLFNIAKAKNLRAQAAANACLMAQI-NH2 [SEQ ID NO: 36, TKFTLSLDVPTNIMNLLFNIAKAKNLRAQAAANACLMAQI-NH2] | – | – | –
9 | 1.17 nM | 0.70 | H-TKFTLSLDVPTNIMNLLFNIAKAKNLRAQAAANCHLMAQI-NH2 [SEQ ID NO: 35, TKFTLSLDVPTNIMNLLFNIAKAKNLRAQAAANCHLMAQI-NH2] | – | – | –
10 | 0.316 nM | −0.03 | CC[C@H](C)[C@H](NC(=O)[C@H](CCC(N)=O)NC(=O)[C@H](C)NC(=O)[C@H](CCSC)NC(=O)[C@H](CC(C)C)NC(=O)[C@H](Cc1c[nH]cn1)NC(=O)[C@H](C)NC(=O)[C@H](CC(N)=O)NC(=O)[C@H](C)NC(=O)[C@H](C)NC(=O)[C@H](C)NC(=O)[C@H](CCC(N)=O)NC(=O)[C@H](CSC1CC(=O)N(CC)C1=O)NC(=O)[C@H](CCCNC(=N)N)NC(=O)[C@H](CC(C)C)NC(=O)[C@H](CC(N)=O)NC(=O)[C@H](CCCCN)NC(=O)[C@H](C)NC(=O)[C@H](CCCCN)NC(=O)[C@H](C)NC(=O)[C@@H](NC(=O)[C@H](CC(N)=O)NC(=O)[C@H](Cc1ccccc1)NC(=O)[C@H](CC(C)C)NC(=O)[C@H](CC(C)C)NC(=O)[C@H](CC(N)=O)NC(=O)[C@H](CCSC)NC(=O)[C@@H](NC(=O)[C@H](CC(N)=O)NC(=O)[C@@H](NC(=O)[C@@H]1CCCN1C(=O)[C@@H](NC(=O)[C@H](CC(=O)O)NC(=O)[C@H](CC(C)C)NC(=O)[C@H](CO)NC(=O)[C@H](CC(C)C)NC(=O)[C@@H](NC(=O)[C@H](Cc1ccccc1)NC(=O)[C@H](CCCCN)NC(=O)[C@@H](N)[C@@H](C)O)[C@@H](C)O)C(C)C)[C@@H](C)O)[C@@H](C)CC)[C@@H](C)CC)C(N)=O (stereo partly shown) [SEQ ID NO: 47, TKFTLSLDVPTNIMNLLFNIAKAKNLRC(-NES)QA AANAH LMAQI-NH2] (H-TKFTLSLDVPTNIMNLLFNIAKAKNLRC(Succinimide(1-Et,3-yl))QAAANAHLMAQI-NH2) | – | – | –
11 | 2.09 nM | 0.90 | TKFTLSLDVPTNICNLLFNIAKAKNLRAQAAANAHLMAQI-NH2 [SEQ ID NO: 15, TKFTLSLDVPTNICNLLFNIAKAKNLRAQAAANAHLMAQI-NH2] | – | – | –
12 | 1.74 nM | 0.76 | TKFTLSLDVPTNIMNLLFNIAKAKNCRAQAAANAHLMAQI-NH2 [SEQ ID NO: 27, TKFTLSLDVPTNIMNLLFNIAKAKNCRAQAAANAHLMAQI-NH2] | – | – | –
13 | 1.62 nM | 0.68 | CC[C@H](C)[C@H](NC(=O)[C@H](CCC(N)=O)NC(=O)[C@H](C)NC(=O)[C@H](CCSC)NC(=O)[C@H](CC(C)C)NC(=O)[C@H](Cc1c[nH]cn1)NC(=O)[C@H](C)NC(=O)[C@H](CC(N)=O)NC(=O)[C@H](C)NC(=O)[C@H](C)NC(=O)[C@H](C)NC(=O)[C@H](CCC(N)=O)NC(=O)[C@H](C)NC(=O)[C@H](CCCNC(=N)N)NC(=O)[C@H](CC(C)C)NC(=O)[C@H](CC(N)=O)NC(=O)[C@H](CCCCN)NC(=O)[C@H](C)NC(=O)[C@H](CCCCN)NC(=O)[C@H](C)NC(=O)[C@H](CSC1CC(=O)N(CC)C1=O)NC(=O)[C@H](CC(N)=O)NC(=O)[C@H](Cc1ccccc1)NC(=O)[C@H](CC(C)C)NC(=O)[C@H](CC(C)C)NC(=O)[C@H](CC(N)=O)NC(=O)[C@H](CCSC)NC(=O)[C@@H](NC(=O)[C@H](CC(N)=O)NC(=O)[C@@H](NC(=O)[C@@H]1CCCN1C(=O)[C@@H](NC(=O)[C@H](CC(=O)O)NC(=O)[C@H](CC(C)C)NC(=O)[C@H](CO)NC(=O)[C@H](CC(C)C)NC(=O)[C@@H](NC(=O)[C@H](Cc1ccccc1)NC(=O)[C@H](CCCCN)NC(=O)[C@@H](N)[C@@H](C)O)[C@@H](C)O)C(C)C)[C@@H](C)O)[C@@H](C)CC)C(N)=O (stereo partly shown) [SEQ ID NO: 51, TKFTL SLDVP TNIMN LLFNC(-NES) AKAKN LRAQA AANAH LMAQI-NH2] (H-TKFTLSLDVPTNIMNLLFNC(Succinimide(1-Et,3-yl))AKAKNLRAQAAANAHLMAQI-NH2; N-terminus assumed) | – | – | –
